{"source": "patent US20070086956A1", "about": "“Method for accelerating the rate of mucociliary clearance” (BAYER AKTIENGESELLSCHAFT, priority 1998, published 2007)", "key": {"Bovine chymotrypsin": {"molecular_target": "Bovine chymotrypsin (Bos taurus, UniProt P00766)", "assay": "Inhibition of chymotrypsin, Ki", "type": "biochemical"}, "human plasma kallikrein": {"molecular_target": "T1, human plasma kallikrein (Homo sapiens, UniProt P03952)", "T1 construct": "purchased Sigma (St. Louis, Mo.)", "T1 sequence (P03952 391-638 limits assumed)": "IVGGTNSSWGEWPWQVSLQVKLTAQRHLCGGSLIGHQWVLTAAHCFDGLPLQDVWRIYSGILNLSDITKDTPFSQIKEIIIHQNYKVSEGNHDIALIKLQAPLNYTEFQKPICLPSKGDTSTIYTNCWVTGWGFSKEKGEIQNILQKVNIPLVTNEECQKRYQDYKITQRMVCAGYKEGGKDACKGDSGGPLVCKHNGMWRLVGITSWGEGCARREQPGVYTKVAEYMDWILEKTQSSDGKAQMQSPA", "T1 sequence (P03952 20-390 partner limits assumed)": "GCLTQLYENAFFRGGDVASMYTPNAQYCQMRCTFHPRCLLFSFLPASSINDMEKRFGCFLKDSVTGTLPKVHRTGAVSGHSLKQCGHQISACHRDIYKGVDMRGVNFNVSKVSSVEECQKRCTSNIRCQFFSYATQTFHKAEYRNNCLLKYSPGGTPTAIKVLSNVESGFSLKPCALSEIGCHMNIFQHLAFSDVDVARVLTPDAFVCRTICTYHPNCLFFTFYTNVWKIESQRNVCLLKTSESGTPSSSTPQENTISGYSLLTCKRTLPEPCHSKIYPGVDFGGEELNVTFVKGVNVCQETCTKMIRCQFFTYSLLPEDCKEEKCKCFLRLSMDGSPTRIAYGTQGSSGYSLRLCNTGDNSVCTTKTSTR", "assay": "Inhibition of human plasma kallikrein, Ki", "type": "biochemical", "quoted_text": "(§1) After 5 min. at 37° C., 15 μl of 2 mM GPK-AMC was added and the change in fluorescence (as above) was monitored. […] After 5 min. incubation at 37° C., 25 μl of 20 mM GPK-AMC was added and the change in fluorescence monitored. […] After 5 min. at 37° C. 15 μl of 20 mM PFR-AMC was added and the change in fluorescence monitored.\n(§2) After 30 min. incubation at 37° C., 25 μl of 20 mM GPK-AMC was added and the change in fluorescence monitored. […] After 30 min. at 37° C., 5 μl of 20 mM PFR-AMC was added and the change in fluorescence monitored."}, "human plasmin": {"molecular_target": "T2, human plasmin (Homo sapiens, UniProt P00747)", "T2 construct": "purchased Sigma (St. Louis, Mo.)", "T2 sequence (P00747 581-810 limits assumed)": "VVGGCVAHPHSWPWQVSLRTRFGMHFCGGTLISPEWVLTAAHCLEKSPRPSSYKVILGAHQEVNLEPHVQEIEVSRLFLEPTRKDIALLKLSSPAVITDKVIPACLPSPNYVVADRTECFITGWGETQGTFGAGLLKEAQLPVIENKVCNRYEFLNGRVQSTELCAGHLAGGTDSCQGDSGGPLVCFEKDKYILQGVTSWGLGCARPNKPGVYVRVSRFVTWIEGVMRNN", "T2 sequence (P00747 97-580 partner limits assumed)": "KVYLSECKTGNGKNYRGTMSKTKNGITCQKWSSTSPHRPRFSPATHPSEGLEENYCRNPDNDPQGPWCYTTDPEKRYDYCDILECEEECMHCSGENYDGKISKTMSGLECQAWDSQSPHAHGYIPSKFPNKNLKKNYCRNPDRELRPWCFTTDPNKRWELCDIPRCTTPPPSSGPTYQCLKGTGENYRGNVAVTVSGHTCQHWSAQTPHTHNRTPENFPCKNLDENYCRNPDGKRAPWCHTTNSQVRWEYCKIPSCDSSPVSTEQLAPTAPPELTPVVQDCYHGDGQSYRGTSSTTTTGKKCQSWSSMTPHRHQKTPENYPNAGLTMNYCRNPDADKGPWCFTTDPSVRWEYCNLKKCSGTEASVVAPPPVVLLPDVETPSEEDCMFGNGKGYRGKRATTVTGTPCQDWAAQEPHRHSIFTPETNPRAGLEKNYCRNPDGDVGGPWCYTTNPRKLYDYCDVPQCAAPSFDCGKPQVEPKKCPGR", "assay": "Inhibition of human plasmin, Ki", "type": "biochemical", "conditions": "Table 3; Human Plasmin (50 pM); GPK-AMC (0.5 mM)", "quoted_text": "as §1, §2"}, "[1]": {"molecular_target": "T3, human neutrophil elastase (Homo sapiens, UniProt P08246)", "T3 sequence (P08246 30-267)": "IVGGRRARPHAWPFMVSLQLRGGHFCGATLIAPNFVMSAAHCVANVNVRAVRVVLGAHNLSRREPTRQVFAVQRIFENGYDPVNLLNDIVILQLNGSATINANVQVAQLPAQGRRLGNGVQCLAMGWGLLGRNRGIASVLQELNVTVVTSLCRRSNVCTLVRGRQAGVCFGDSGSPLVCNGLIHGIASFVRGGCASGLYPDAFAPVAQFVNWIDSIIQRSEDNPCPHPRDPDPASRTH", "assay": "Inhibition of human neutrophil elastase, Ki (Dixon plots)", "type": "biochemical", "conditions": "Table 3; Human Neutrophil Elastase (19 nM)", "description": "[…] Ki values were determined from Dixon plots of the form 1/V versus performed at two different substrate concentrations (Dixon et al., 1979)."}, "human tissue kallikrein": {"molecular_target": "T4, human tissue kallikrein (Homo sapiens, UniProt P06870)", "T4 construct": "purchased Bayer, Germany", "T4 sequence (P06870 25-262)": "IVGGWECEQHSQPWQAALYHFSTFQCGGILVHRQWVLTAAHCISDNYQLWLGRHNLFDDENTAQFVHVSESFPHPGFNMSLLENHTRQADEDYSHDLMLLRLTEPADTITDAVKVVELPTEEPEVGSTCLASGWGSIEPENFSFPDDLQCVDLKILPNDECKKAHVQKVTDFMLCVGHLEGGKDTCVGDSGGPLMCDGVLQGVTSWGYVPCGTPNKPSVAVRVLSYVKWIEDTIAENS", "assay": "Inhibition of human tissue kallikrein, Ki", "type": "biochemical", "conditions": "Table 3; Human Tissue Kallikrein (0.35 nM); PFR-AMC (10 μM)", "quoted_text": "After 5 min. at 37° C., 5 ul of 2 mM PFR-AMC was added achieving 10 uM final and the change in fluorescence monitored. The Km for PFR-AMC with human tissue kallikrein under the conditions employed was 5.7 uM.\nAfter 5 min. at 37° C., 5 μl of 2 mM PFR-AMC was added and the change in fluorescence monitored.\nAfter 5 min. at 37° C., 5 ul of 2 mM PFR-AMC was added achieving 10 uM final concentration and the change in fluorescence monitored."}, "human factor Xa": {"molecular_target": "T5, human factor Xa (Homo sapiens, UniProt P00742)", "T5 construct": "purchased American Diagnostica, Inc, Greenwich, Conn", "T5 sequence (P00742 235-488 limits assumed)": "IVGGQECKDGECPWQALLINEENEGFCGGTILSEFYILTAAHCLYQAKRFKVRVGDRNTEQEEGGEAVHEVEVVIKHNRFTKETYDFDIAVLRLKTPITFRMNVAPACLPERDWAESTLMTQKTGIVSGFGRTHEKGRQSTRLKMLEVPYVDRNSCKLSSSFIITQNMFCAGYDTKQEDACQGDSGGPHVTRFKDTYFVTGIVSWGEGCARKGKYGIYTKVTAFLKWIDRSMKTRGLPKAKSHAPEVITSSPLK", "T5 sequence (P00742 41-179 partner limits assumed)": "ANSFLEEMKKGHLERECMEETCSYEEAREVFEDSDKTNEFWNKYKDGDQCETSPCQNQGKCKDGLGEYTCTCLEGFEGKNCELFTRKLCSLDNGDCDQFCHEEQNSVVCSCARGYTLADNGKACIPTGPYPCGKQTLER", "assay": "Inhibition of human factor Xa", "type": "biochemical", "conditions": "Table 3; factor Xa (0.87 nM); LGR-AMC (0.6 mM)", "quoted_text": "(§3) After 5 min. at 37° C., 30 ul of 20 mM LGR-AMC (Sigma) was added and the change in fluorescence monitored. […] After 5 min. at 37° C., 35 ul of 20 mM GGR-AMC (Sigma) was added and the change in fluorescence monitored."}, "human urokinase": {"molecular_target": "T6, human urokinase (Homo sapiens, UniProt P00749)", "T6 construct": "purchased Sigma", "assay": "Inhibition of human urokinase, Ki", "type": "biochemical", "conditions": "Table 3, GGR-AMC (0.7 mM)", "quoted_text": "as §3"}, "[2]": {"tested_on": "human CF bronchial epithelial cells", "assay": "Short circuit current (Isc) in cultured human cystic fibrosis bronchial epithelial cells", "type": "cell-based", "quoted_text": "HBE cells were isolated from CF patient lung transplant tissue and grown in collagen coated flasks for one week. The cells were then passaged and seeded onto collagen coated Costar Transwell filters (0.33 cm2) and grown in DMEM/F12 media supplemented with 2% Ultroser G. Cells were grown at an air liquid interface and used 2 to 4 weeks after seeding:\nCells on the Transwell filters were mounted in modified Costar Ussing chambers and studied under Isc conditions. […] Isc was recorded for 100 minutes and then the apical bath fluid was exchanged with fresh buffer. Trypsin (100 BAEE units/mL) was added to the apical side and Isc recorded for 10 minutes. Amiloride (10 uM) was then added to the apical side and Isc was recorded for a further 10 minutes.\nHBE cells were isolated from CF patient lung transplant tissue and grown in collagen coated flasks for one week. The cells were then passaged and seeded onto collagen coated Costar Transwell filters (0.33 cm^2) and grown in DMEM/F12 media supplemented with 2% Ultroser G. Cells were grown at an air liquid interface and used 2 to 4 weeks after seeding.\nCells on the Transwell filters were mounted in modified Costar Ussing chambers and studied under Isc conditions. […] Isc was recorded for 90 minutes and then amiloride (10 uM) was added and Isc was recorded for a further 10 minutes. The apical bath fluid was then exchanged with fresh buffer, and Isc was recorded for a further 15 minutes. Trypsin (1 uM) was added to the apical side and Isc recorded for 15 minutes. Amiloride (10 uM) was then added to the apical side and Isc was recorded for a further 10 minutes."}, "guinea pig trachea [3]": {"tested_on": "guinea pig trachea", "assay": "Tracheal mucus velocity (TMV) in the guinea-pig", "type": "in vivo", "description": "The aim of this study was to investigate the effect of the Kunitz family serine protease inhibitor Bikunin on guinea-pig tracheal mucus velocity 1.5 hours post treatment. This agent was delivered into the cephalad trachea by topical instillation. TMV was monitored 1.5 hours later for 60 mins. The procedure used in this Example is described in Newton et al. in “Cila, Mucus and Mucociliary Interactions,” Ed., Baum, G. L. et al., Marcel Dekker, New York, 1998; Newton et al., Ped. Pulm. S17, Abs. 364, 1998). […]\nTMV was monitored using a lead collimated miniature Beta particle detector probe arranged to detect the radioactivity emitted from an injected aliquot of ^32P-labelled Saccharomyces cerevisiae as it was transported on the tracheal mucociliary layer of an anaesthetized guinea pig (Newton and Hall 1998) FIG. 16(a) illustrates the arrangement of the syringe and beta probe. FIG. 16(b) illustrates the counts detected by the probe as the ^32P-labelled S. cerevisiae is transported along the tracheal mucociliary layer. […]\nThe aim of this comparative study was to investigate the effect of hypertonic saline (14.4%×5 min) on guinea-pig tracheal mucus velocity. […] TMV was monitored immediately and every 15 minutes for 30 minutes. […]"}, "guinea pig trachea [4]": {"tested_on": "guinea pig trachea", "conditions": "10 mM, 20 minute aerosol; 15 minutes after; n=8 (Newton et al 1998); cited from earlier work"}, "diseased patients": {"tested_on": "diseased patients", "conditions": "inhalation; diseased patients (Robinson et al 1997; App et al 1990); cited from earlier work"}, "[5]": {"tested_on": "human bronchial epithelial cell (HBE)", "assay": "Short circuit current (Isc) in cultured human bronchial epithelial (HBE) cells, Ussing chamber", "type": "cell-based", "conditions": "for sodium current: 0.5 to 5 ug/mL (0.5, 1.5 and 5 ug/mL), 90 minute period", "quoted_text": "Tertiary HBE cell monolayer grown to confluence were mounted in modified Ussing chambers, immersed in Krebs buffer (KBR) solution and bubbled with 95% O2/5% CO2 warmed to 37 C.\nCells were left to equilibrate for 20 minutes before calibrating for background noise and fluid resistance. Transepithelial potential difference was then clamped to 0 mV using a WPI EVC 4000 voltage clamp. Ag/AgCl electrodes were used to monitor Isc. […] Once a response to amiloride was seen, it was washed out with KBR solution. […] 90 minutes following agent treatment, amiloride (10 uM) was added. Once the current was stable forskolin (10 uM) and then bumetanide (100 uM) was added.\nTertiary HBE cell monolayers grown to confluence were mounted in modified Ussing chambers, immersed in Krebs buffer (KBR) solution and bubbled with 95% O2/5% CO2 warmed to 37 C.\nCells were left to equilibrate for 20 minutes before calibrating for background noise and fluid resistance. Transepithelial potential difference was then clamped to 0 mV using a WPI EVC 4000 voltage clamp. Ag/AgCI electrodes were used to monitor Isc. […] Once a response to amiloride was seen, it was washed out with KBR solution. […] 90 minutes following agent treatment, amiloride (10 uM) was added."}, "A6 cells": {"tested_on": "A6 cells", "conditions": "exposure of the apical membrane (Vallet et al 1997; Chraibi et al 1998), cited from earlier work"}, "allergic sheep": {"tested_on": "allergic sheep", "conditions": "cited from earlier work"}}, "note": "Like-named read-outs stand apart in the source and are kept apart here.", "data": [{"compound": "CC[C@H](C)[C@@H]1NC(=O)[C@H](Cc2ccccc2)NC(=O)[C@H](CC(N)=O)NC(=O)[C@H](CC(N)=O)NC(=O)[C@@H]2CSSC[C@@H]3NC(=O)[C@H](C)NC(=O)[C@H](CCC(=O)O)NC(=O)[C@H](CCC(=O)O)NC(=O)[C@H](CO)NC(=O)[C@H](CCCNC(=N)N)NC(=O)[C@H](Cc4ccc(O)cc4)NC(=O)[C@H](CO)NC(=O)[C@H](CC(N)=O)NC(=O)[C@H](CCCCN)NC(=O)[C@H](CC(N)=O)NC(=O)CNC(=O)[C@H](CCCNC(=N)N)NC(=O)[C@H](CSSC[C@H](NC(=O)[C@@H]4CCCN4C(=O)CNC(=O)[C@H]([C@@H](C)O)NC(=O)[C@H](C(C)C)NC(=O)[C@H](C)NC(=O)[C@H](CC(N)=O)NC(=O)[C@H](C)NC(=O)[C@H]([C@@H](C)O)NC(=O)[C@@H](NC(=O)[C@H](Cc4ccc(O)cc4)NC(=O)[C@H](CCC(=O)O)NC(=O)[C@H](CCC(=O)O)NC(=O)[C@@H](N)Cc4ccc(O)cc4)CSSC[C@@H](C(=O)N[C@@H](Cc4ccccc4)C(=O)N[C@@H](CCCNC(=N)N)C(=O)N[C@@H](CCC(N)=O)C(=O)O)NC(=O)[C@H](CCCNC(=N)N)NC(=O)[C@H](CC(C)C)NC(=O)[C@H](CCSC)NC3=O)C(=O)N[C@@H](CCCNC(=N)N)C(=O)N[C@@H](C)C(=O)N[C@@H](CO)C(=O)N[C@@H](Cc3ccccc3)C(=O)N3CCC[C@H]3C(=O)N[C@@H](CCCNC(=N)N)C(=O)N[C@@H](Cc3c[nH]c4ccccc34)C(=O)N[C@@H](Cc3ccc(O)cc3)C(=O)N[C@@H](Cc3ccccc3)C(=O)N[C@@H](CC(=O)O)C(=O)N[C@@H](C(C)C)C(=O)N[C@@H](CCC(=O)O)C(=O)N[C@@H](CCCNC(=N)N)C(=O)N[C@@H](CC(N)=O)C(=O)N[C@@H](CO)C(=O)N2)NC(=O)CNC(=O)CNC(=O)[C@H](Cc2ccc(O)cc2)NC1=O", "note": "[Bikunin (102-159)]", "values": [{"measurement": "Ki", "setting": "Bovine chymotrypsin; Table 3, Chymotrypsin (5 nM), AAPF-pNA (0.08 mM)", "result": 0.24, "unit": "nM"}, {"measurement": "Ki", "setting": "Bovine chymotrypsin; Table 4A, Bovine chymotrypsin (5 nM)", "result": 0.2, "unit": "nM"}, {"measurement": "Ki", "setting": "human plasma kallikrein; Table 3, Human Plasma Kallikrein (2.5 nM), PFR-AMC (0.3 mM)", "result": 0.3, "unit": "nM"}, {"measurement": "Ki", "setting": "human plasma kallikrein; Table 4A, Human Plasma Kallikrein (2.5 nM)", "result": 0.3, "unit": "nM"}, {"measurement": "Ki", "setting": "human plasma kallikrein; Table 4B, Human Plasma Kallikrein ([…] nM)", "result": 0.7, "unit": "nM"}, {"measurement": "Ki", "setting": "human plasmin", "result": 1.8, "unit": "nM"}, {"measurement": "Ki", "setting": "[1]", "result": 323, "unit": "nM"}, {"measurement": "Ki", "setting": "human tissue kallikrein", "result": 0.13, "unit": "nM"}, {"measurement": "Ki", "setting": "human factor Xa", "result": 274, "unit": "nM"}, {"measurement": "Ki", "setting": "human urokinase", "result": 11000, "unit": "nM"}]}, {"compound": "N=C(N)NC(=O)c1nc(Cl)c(N)nc1N", "note": "[amiloride, reference compound]", "values": [{"measurement": "Isc", "setting": "[2]; 10 uM, apical, after trypsin", "result": "inhibited the majority of the current"}, {"measurement": "TMV", "setting": "guinea pig trachea [3]; 10 mM x 20 mins aerosol, 15 minutes after aerosol, FIG. 19", "result": "statistically significant increase in TMV"}, {"measurement": "TMV", "setting": "guinea pig trachea [4]", "result": "8.1±0.3", "unit": "mm.min^−1"}, {"measurement": "MCC", "setting": "diseased patients", "result": "significantly increase MCC"}]}, {"compound": "Aprotinin", "values": [{"measurement": "sodium short circuit current", "setting": "[5]; 5 ug/mL, FIG. 20", "result": "decrease sodium short circuit current"}, {"measurement": "Isc", "setting": "[2]; 20 ug/mL, 90 minutes after apical application", "result": "decreases sodium current"}, {"measurement": "Isc", "setting": "[2]; 20 ug/mL, 90 minutes after apical application, listed as aprotinin", "result": "inhibited Isc"}, {"measurement": "Isc", "setting": "[2]; 1 mg/mL in PBS, over a 100 minute period, FIG. 21", "result": "inhibited Isc"}, {"measurement": "transepithelial Na+ transport", "setting": "A6 cells", "result": "reduce transepithelial Na^+ transport"}, {"measurement": "transepithelial Na+ transport", "setting": "A6 cells; listed as aprotinin", "result": "reduced transepithelial Na^+ transport"}]}, {"compound": "Des Pro2-Ser10-Arg15-Asp24-Thr26-Glu31-Asn41-Glu53-Aprotinin [Aprotinin double mutein]", "values": [{"measurement": "sodium current", "setting": "[5]; FIG. 20", "result": "dose dependently inhibited sodium current"}, {"measurement": "sodium current", "setting": "[5]; FIG. 20, listed as aprotinin double mutein", "result": "decrease sodium short circuit current"}, {"measurement": "TMV", "setting": "guinea pig trachea [3]; 10 ug, relative to HBSS, 1.5 to 2.5 hours following administration, FIG. 26", "result": "increased TMV"}]}, {"compound": "α1-PI: serpin-family serine protease inhibitor alpha(1)-protease inhibitor", "values": [{"measurement": "effect on Na+ Isc", "setting": "[5]; 50 ug.ml−1, normal HBE cells, further study", "result": "without a significant effect"}, {"measurement": "antigen-induced reduction in TMV", "setting": "allergic sheep; 10 mg given 30 min before or 1 h after antigen challenge, 6 h after challenge", "result": "attenuated antigen-induced reduction in TMV"}, {"measurement": "baseline TMV", "setting": "allergic sheep; administered on its own (no antigen challenge), over a 6 h period", "result": "no effect on baseline TMV"}, {"measurement": "antigen-induced fall in TMV", "setting": "allergic sheep; given 6 h after antigen challenge, at 24 h after challenge", "result": "significant reversal of the antigen-induced fall in TMV"}]}]}
